# Patent US20230078718A1, “UNSATURATED FATTY ACID-CONJUGATED CP2C-TARGETING PEPTIDE-BASED ANTICANCER AGENT” (Industry-University Cooperation Foundation Hanyang …, priority 2020, published 2023)
# Bridge positions count the residues as written; N and C are the ends. Peptide text beside a SMILES is read from it. * marks the point of attachment. X1 = CC/C=C\C/C=C\C/C=C\C/C=C\C/C=C\C/C=C\CCC(=O)*
# What was measured:
# Hep3B xenograft = assay: Tumor growth inhibition in Hep3B xenograft mouse model; format: in vivo
# Experimental: In order to confirm the anticancer efficacy of ACP52CG and ACP52CK in vivo, following groups of treatment were performed […]; a negative control (saline; mock), a positive control (sorafenib, 10 mg/kg and ACP52C, 2 mg/kg), and an experimental group (ACP52CK, 5 mg/kg and ACP52CG, 5 mg/kg).
# [1] = system: CP2c transcription factor complexes [CP2c homotetramer and the CBP (CP2c, CP2b, and PIAS1) heterohexamer]; assay: Interference with CP2c transcription factor complex formation and DNA binding; format: biochemical
# Source text: Since PEP #5-2 cannot enter cells by itself, in order to improve cell permeability of Pep #5-2, a cell-penetrating peptide (CPP), an internalizing RGD (iRGD) which is a peptide consisting of 9 amino acids (9aa) ‘Cys-Arg-Gly-Asp-Lys-Gly-Pro-Asp-Cys (CRGDKGPDC, SEQ ID NO: 3)’, was bound to the CP2c-targeting peptide and named it as ACP52C (FIG. 7).
# [2] = system: breast cancer (MDA-MB-231) and liver cancer (HepG2) cell lines
# [3] = system: normal human mesenchymal stem cells (hMSCs)
# Experimental: (§1) As an example thereof, FIG. 10 illustrates cell numbers at 48 hours and 96 hours after treatment of each drug at different concentrations in a breast cancer cell line (MDA-MB-231), normal human mesenchymal stem cells (hMSCs, LT18), and a non-tumorigenic lung cell line (BEAS-2B), cell growth inhibition graphs to get GI50 values, and representative photographs of cells.
# (§2) First, to test the effect of DHA itself, a breast cancer cell line (MDA-MB-231), liver cancer cell lines (Hep3B and HepG2), a normal hMSC cell line ([…]), and a non-tumorigenic lung cell line (BEAS-2B) were treated with DHA over concentrations, and then cell growth was analyzed by MTT assay.
# [4] = system: non-tumorigenic lung cell line (BEAS-2B)
# Experimental: as §1, §2
# [5] = system: breast cancer cell line (MDA-MB-231), liver cancer cell lines (Hep3B and HepG2); assay: Cell growth by MTT assay after DHA treatment of cancer cell lines; format: cell-based
# Experimental: First, to test the effect of DHA itself, a breast cancer cell line (MDA-MB-231), liver cancer cell lines (Hep3B and HepG2), a normal hMSC cell line (LA211), and a non-tumorigenic lung cell line (BEAS-2B) were treated with DHA over concentrations, and then cell growth was analyzed by MTT assay.
# [6] = Live imaging of Cy5-labeled peptide after tail vein injection in Hep3B xenograft mouse; conditions: in vivo
# Source text: (§3) The following methods were used to confirm the stability and safety of the cancer cell-specific cell death-inducing ACP52C. […] It is presumed that ACP52C is subjected to renal secretion rather than degradation by proteases, since ACP52C (a peptide consisted of 15 amino acids) is short enough to be easily secreted from the kidneys.
# human erythrocytes = assay: Hemolysis of erythrocytes; format: cell-based; conditions: pH 7.4, 8 hours
# Source text: as §3
# [7] = system: MDA-MB-231 and HepG2 cell lines
# MDA-MB-231 cells = conditions: western blotting of apoptosis-related proteins, electron microscopy, Annexin V/PI
# [8] = system: MCF10A, a non-tumorigenetic breast epithelial cell line; conditions: FACS
# MDA-MB-231 cell line = conditions: MDA-MB-231, FACS
# MCF10A cells = conditions: electron microscopy
# [9] = system: various cancer cell lines; assay: Cell growth inhibition in various cancer cell lines (MTT assay, GI50); format: cell-based
# MCF7 cells = conditions: ACP52C-treated MCF7 cells
# [10] = Stability in serum (in vitro) by HPLC; format: in vitro ADME
# Source text: as §3
# [11] = Half-life in blood (in vivo) by HPLC; conditions: read-out: time to degradation to half in blood (in vivo) (converted)
# Source text: as §3
# [12] = tail vein, 6 times at 3-day intervals, sorafenib 10 mg/kg, DHA-ACP52 1.65 mg/kg, DHA-ACP52C 2.79 mg/kg
compound,measurement,setting,value
"CNC(=O)c1cc(Oc2ccc(NC(=O)Nc3ccc(Cl)c(C(F)(F)F)c3)cc2)ccn1 [sorafenib, reference compound]",tumor size measured once every 3 days during the experiment,Hep3B xenograft; [12],inhibited cancer growth more effectively than the group treated with mock or DHA-ACP52
same,"tumor size, shape, and weight in sacrificed mice",Hep3B xenograft; [12],significant anticancer efficacy compared to the mock
"PEP #5: peptide binding transcription factor CP2c, identified by the phage display method (YPQR; peptide for targeting CP2c)",interference with DNA binding of the CP2c transcription factor complexes by suppressing complex formation,[1],interferes with DNA binding of the CP2c transcription factor complexes
CC/C=C\C/C=C\C/C=C\C/C=C\C/C=C\C/C=C\CCC(=O)NCC(=O)NCC(=O)N[C@@H](CC(N)=O)C(=O)N[C@@H](Cc1ccc(O)cc1)C(=O)N1CCC[C@H]1C(=O)N[C@@H](CCC(N)=O)C(=O)N[C@@H](CCCNC(=N)N)C(=O)N1CCC[C@H]1C(N)=O [DHA-ACP52] (X1-GGNYPQRP-NH2),GI50,[2],5.7 to 6.95 µM
same,"tumor size, shape, and weight in sacrificed mice",Hep3B xenograft; [12],did not exhibit any effect
same,toxicity,[3],none of DHA-ACP52 and DHA-ACP52C showed toxicity
same,toxicity,[4],none of DHA-ACP52 and DHA-ACP52C showed toxicity
"NYPQRP(Asn-Try-Pro-Gln-Arg-Pro, SEQ ID NO: 2) (peptide for targeting CP2c) [PEP #5-2, CP2c-targeting peptide of 6 amino acids at the carboxyl terminus of PEP #5]",interference with DNA binding of the CP2c transcription factor complexes by suppressing complex formation,[1],showed the same effect as PEP #5
"CC/C=C\C/C=C\C/C=C\C/C=C\C/C=C\C/C=C\CCC(=O)O [DHA, all-cis-docosa-4,7,10,13,16,19-hexa-enoic acid, reference compound]",anticancer effect at a concentration of 10 μM or less,[5]; Hep3B and MDA-MB-231 cell lines,no anticancer effect was exhibited
same,concentration showing cytotoxicity,"[5]; cancer cells, MTT",≥ 20 µM
same,cytotoxicity,[3],showed no cytotoxicity on the normal cell line
same,concentration showing cytotoxicity,[4]; human,≥ 20 µM
N=C(N)NCCC[C@@H]1NC(=O)[C@@H](NC(=O)[C@@H]2CCCN2C(=O)[C@H](CCCNC(=N)N)NC(=O)[C@H](CCC(N)=O)NC(=O)[C@@H]2CCCN2C(=O)[C@H](Cc2ccc(O)cc2)NC(=O)[C@@H](N)CC(N)=O)CSSC[C@@H](C(N)=O)NC(=O)[C@H](CC(=O)O)NC(=O)[C@@H]2CCCN2C(=O)CNC(=O)[C@H](CCCCN)NC(=O)[C@H](CC(=O)O)NC(=O)CNC1=O [ACP52C] (H-NYPQRPCRGDKGPDC-NH2; disulfide 7-15; N-terminus assumed),half-life,[6],~477 min
same,hemolysis,human erythrocytes,Hemolysis was not appeared
same,GI50,[2],2 µM
same,colony formation ability when CP2c is overexpressed,[7]; CP2c overexpression,the colony formation ability is suppressed more efficiently
same,colony formation ability,[7]; MDA-MB-231 and HepG2,efficiently suppressed the colony formation ability
same,cell death induction via apoptosis,MDA-MB-231 cells,induced cell death via apoptosis
same,cell cycle progression,[8],exerted no effect on cell cycle progression
same,cell cycle changes,MDA-MB-231 cell line,"induced cell cycle arrest, increasing cells at G2/M and subG1 phases"
same,characteristics of apoptosis (condensation of cell nuclei),MCF10A cells,not at all in MCF10A cells
same,effective concentration for cancer cell-specific cell death,[9],≤ 10 µM
same,cancer cell-specific growth suppression and cell death,[9]; various cancer cell lines,cancer cell-specific growth suppression and cell death efficacies
same,expression of Cdc2 (CDK1) and Cyclin B1,MCF7 cells,expression of Cdc2 (CDK1) and Cyclin B1 was decreased
same,time stable in serum (in vitro),[10],up to 24 hours
same,anticancer effect (summary),Hep3B xenograft; injected by 3-day intervals,exhibited a significant anticancer effect when injected by 3-day intervals
same,anticancer effect (summary),Hep3B xenograft; injected by 5-day intervals,did not exhibit a significant anticancer effect when injected by 5-day intervals
same,half-life,[11],120 min
